Test results: PMC5218480 (PLoS ONE, 2017)

Tested on: MV-4-11 cells
Assay: Gene expression microarray analysis (Affymetrix PrimeView) and GSEA
Format: cell-based, human
Design: RFU PODN (11730768_x_at) / Fold change /veh PODN (11730768_x_at) / RFU LINC00158 (11744669_a_at) / Fold change /veh LINC00158 (11744669_a_at) / RFU DUSP10 (11751237_a_at) / Fold change /veh DUSP10 (11751237_a_at) / RFU ID3 (11757404_x_at) / Fold change /veh ID3 (11757404_x_at) / RFU PLEKHG5 (11737974_s_at) / Fold change /veh PLEKHG5 (11737974_s_at) / RFU LRRC4B (11730491_at) / Fold change /veh LRRC4B (11730491_at) / RFU GIMAP4 (11747438_a_at) / Fold change /veh GIMAP4 (11747438_a_at) / RFU KRT8 (11758183_x_at) / Fold change /veh KRT8 (11758183_x_at) / RFU CNN1 (11734310_a_at) / Fold change /veh CNN1 (11734310_a_at) / RFU VPS37D (11726825_at) / Fold change /veh VPS37D (11726825_at) / RFU C10orf10 (11716522_x_at) / Fold change /veh C10orf10 (11716522_x_at) / RFU KIR2DL2 /// KIR2DL4 /// KIR2DL5A /// KIR2DL5B /// KIR2DS1 /// KIR2DS2 /// KIR2DS3 /// KIR2DS4 /// KIR3DL3 /// KIR3DL3 /// KIR3DS1 (11738374_at) / Fold change /veh KIR2DL2 /// KIR2DL4 /// KIR2DL5A /// KIR2DL5B /// KIR2DS1 /// KIR2DS2 /// KIR2DS3 /// KIR2DS4 /// KIR3DL3 /// KIR3DL3 /// KIR3DS1 (11738374_at) / RFU C1QL1 (11718748_at) / Fold change /veh C1QL1 (11718748_at) / RFU TMPRSS4 (11747572_a_at) / Fold change /veh TMPRSS4 (11747572_a_at) / RFU HAMP (11756126_x_at) / Fold change /veh HAMP (11756126_x_at) / RFU RNFT2 (11725882_a_at) / Fold change /veh RNFT2 (11725882_a_at) / RFU NR4A2 (11747474_a_at) / Fold change /veh NR4A2 (11747474_a_at) / RFU ABCC12 (11746883_a_at) / Fold change /veh ABCC12 (11746883_a_at) / RFU TMEM136 (11760407_x_at) / Fold change /veh TMEM136 (11760407_x_at) / RFU CLDN22 /// WWC2 (11732394_at) / Fold change /veh CLDN22 /// WWC2 (11732394_at) / RFU HLA-DPB1 (11760878_x_at) / Fold change /veh HLA-DPB1 (11760878_x_at) / RFU SPINT1 (11716480_a_at) / Fold change /veh SPINT1 (11716480_a_at) / RFU GAP43 (11754022_s_at) / Fold change /veh GAP43 (11754022_s_at) / RFU A4GNT (11735810_at) / Fold change /veh A4GNT (11735810_at) / RFU PRB3 (11715151_x_at) / Fold change /veh PRB3 (11715151_x_at) / RFU TUBB4B (11761932_at) / Fold change /veh TUBB4B (11761932_at) / RFU CAPN14 (11732068_a_at) / Fold change /veh CAPN14 (11732068_a_at) / RFU TMCC2 (11721928_a_at) / Fold change /veh TMCC2 (11721928_a_at) / RFU IRGQ (11745062_a_at) / Fold change /veh IRGQ (11745062_a_at) / RFU FAM174B (11720279_a_at) / Fold change /veh FAM174B (11720279_a_at) / RFU TMPRSS4 (11748680_a_at) / Fold change /veh TMPRSS4 (11748680_a_at) / RFU FAM212B (11763350_a_at) / Fold change /veh FAM212B (11763350_a_at) / RFU PLEKHG5 (11743358_a_at) / Fold change /veh PLEKHG5 (11743358_a_at) / RFU ZSCAN30 (11745921_a_at) / Fold change /veh ZSCAN30 (11745921_a_at) / RFU CMKLR1 (11741424_a_at) / Fold change /veh CMKLR1 (11741424_a_at) / RFU LOC101060620 /// MAPK8IP1 (11723275_at) / Fold change /veh LOC101060620 /// MAPK8IP1 (11723275_at) / RFU SPTSSB (11747773_x_at) / Fold change /veh SPTSSB (11747773_x_at) / RFU PRSS12 (11739890_at) / Fold change /veh PRSS12 (11739890_at) / RFU BIN1 (11741810_x_at) / Fold change /veh BIN1 (11741810_x_at) / RFU WNT11 (11732464_a_at) / Fold change /veh WNT11 (11732464_a_at) / RFU C10orf10 (11716521_a_at) / Fold change /veh C10orf10 (11716521_a_at) / RFU C5orf56 (11738089_at) / Fold change /veh C5orf56 (11738089_at) / RFU CYB561 (11721691_x_at) / Fold change /veh CYB561 (11721691_x_at) / RFU ANKRD19P (11752326_a_at) / Fold change /veh ANKRD19P (11752326_a_at) / RFU OR2T12 /// OR2T33 /// OR2T8 (11738714_s_at) / Fold change /veh OR2T12 /// OR2T33 /// OR2T8 (11738714_s_at) / RFU VCAN (11748164_a_at) / Fold change /veh VCAN (11748164_a_at) / RFU JSRP1 (11732532_at) / Fold change /veh JSRP1 (11732532_at) / RFU KRTAP10-11 (11738290_x_at) / Fold change /veh KRTAP10-11 (11738290_x_at) / RFU MYO3A (11730013_a_at) / Fold change /veh MYO3A (11730013_a_at) / RFU EBF3 (11725865_a_at) / Fold change /veh EBF3 (11725865_a_at) / RFU CAMK2N1 (11719241_x_at) / Fold change /veh CAMK2N1 (11719241_x_at) / RFU C5orf56 (11738088_a_at) / Fold change /veh C5orf56 (11738088_a_at) / RFU OLFML3 (11715873_a_at) / Fold change /veh OLFML3 (11715873_a_at) / RFU LOC100653217 /// NTM (11731650_a_at) / Fold change /veh LOC100653217 /// NTM (11731650_a_at) / RFU MAPK11 (11762145_a_at) / Fold change /veh MAPK11 (11762145_a_at) / RFU FIZ1 (11724087_x_at) / Fold change /veh FIZ1 (11724087_x_at) / RFU OASL (11726364_x_at) / Fold change /veh OASL (11726364_x_at) / RFU SOX15 (11748057_x_at) / Fold change /veh SOX15 (11748057_x_at) / RFU CD79A (11719716_a_at) / Fold change /veh CD79A (11719716_a_at) / RFU HIST1H1D (11736915_at) / Fold change /veh HIST1H1D (11736915_at) / RFU CASKIN2 (11723855_a_at) / Fold change /veh CASKIN2 (11723855_a_at) / RFU LOC730098 (11760151_x_at) / Fold change /veh LOC730098 (11760151_x_at) / RFU OR4N2 (11742367_at) / Fold change /veh OR4N2 (11742367_at) / RFU PRRT2 (11749266_a_at) / Fold change /veh PRRT2 (11749266_a_at) / RFU SNX32 (11753110_a_at) / Fold change /veh SNX32 (11753110_a_at) / RFU CDHR5 (11726645_a_at) / Fold change /veh CDHR5 (11726645_a_at) / RFU RCAN1 (11760418_a_at) / Fold change /veh RCAN1 (11760418_a_at) / RFU FAM167A (11723789_a_at) / Fold change /veh FAM167A (11723789_a_at) / RFU FAM26E (11764081_at) / Fold change /veh FAM26E (11764081_at) / RFU ISYNA1 (11749810_s_at) / Fold change /veh ISYNA1 (11749810_s_at) / RFU ACY1 (11761880_at) / Fold change /veh ACY1 (11761880_at) / RFU 11764098_at / Fold change /veh 11764098_at / RFU SAMD14 (11745864_x_at) / Fold change /veh SAMD14 (11745864_x_at) / RFU NPB (11741838_a_at) / Fold change /veh NPB (11741838_a_at) / RFU TMPRSS6 (11731388_a_at) / Fold change /veh TMPRSS6 (11731388_a_at) / RFU KRTAP10-2 (11738614_at) / Fold change /veh KRTAP10-2 (11738614_at) / RFU ARHGAP8 /// PRR5-ARHGAP8 (11727945_x_at) / Fold change /veh ARHGAP8 /// PRR5-ARHGAP8 (11727945_x_at) / RFU KRTAP5-7 /// NADSYN1 (11734609_at) / Fold change /veh KRTAP5-7 /// NADSYN1 (11734609_at) / RFU RASL12 (11751679_a_at) / Fold change /veh RASL12 (11751679_a_at) / RFU CDKN2B (11736163_a_at) / Fold change /veh CDKN2B (11736163_a_at) / RFU PRF1 (11729649_at) / Fold change /veh PRF1 (11729649_at) / RFU, ZNF638 /// ZNF638-IT1 / Fold change vs veh, ZNF638 /// ZNF638-IT1 / RFU, PANK3 / Fold change vs veh, PANK3 / RFU, SH3YL1 / Fold change vs veh, SH3YL1 / RFU, ZEB2 / Fold change vs veh, ZEB2 / RFU, NRIP1 / Fold change vs veh, NRIP1 / RFU, PTTG1IP / Fold change vs veh, PTTG1IP / RFU, CAPN2 / Fold change vs veh, CAPN2 / RFU, MED14 / Fold change vs veh, MED14 / RFU, SNORA58 / Fold change vs veh, SNORA58 / RFU, C1orf63 / Fold change vs veh, C1orf63 / RFU, LRRFIP1 / Fold change vs veh, LRRFIP1 / RFU, NDUFAF7 / Fold change vs veh, NDUFAF7 / RFU, SLC12A2 / Fold change vs veh, SLC12A2 / RFU, IBTK / Fold change vs veh, IBTK / RFU, ESF1 / Fold change vs veh, ESF1 / Fold change vs veh, TMEM50B / RFU, TAOK1 / Fold change vs veh, TAOK1 / RFU, ACBD3 / Fold change vs veh, ACBD3 / RFU, TMA16 / Fold change vs veh, TMA16 / RFU, RWDD3 / Fold change vs veh, RWDD3 / RFU, BCAT1 / Fold change vs veh, BCAT1 / RFU, EDEM3 / Fold change vs veh, EDEM3 / RFU, TMEM33 / Fold change vs veh, TMEM33 / RFU, WDR75 / Fold change vs veh, WDR75 / RFU, AHCTF1 / Fold change vs veh, AHCTF1 / RFU, TFRC / Fold change vs veh, TFRC / RFU, ZDHHC17 / Fold change vs veh, ZDHHC17 / RFU, NOM1 / Fold change vs veh, NOM1 / RFU, ARL8B / Fold change vs veh, ARL8B / RFU, ZBTB11 / Fold change vs veh, ZBTB11 / RFU, TAMM41 / Fold change vs veh, TAMM41 / RFU, KIAA1704 /// LOC100996395 / Fold change vs veh, KIAA1704 /// LOC100996395 / RFU, ING1 / Fold change vs veh, ING1 / RFU, TRMT61B / Fold change vs veh, TRMT61B / RFU, FUBP3 / Fold change vs veh, FUBP3 / RFU, TP53 / Fold change vs veh, TP53 / RFU, TNKS2 / Fold change vs veh, TNKS2 / RFU, ZFP14 / Fold change vs veh, ZFP14 / RFU, ACTR2 / Fold change vs veh, ACTR2 / RFU, PPP3R1 / Fold change vs veh, PPP3R1 / RFU, PIK3R1 / Fold change vs veh, PIK3R1 / RFU, HNRNPA1 / Fold change vs veh, HNRNPA1 / RFU, RNF170 / Fold change vs veh, RNF170 / RFU, ZNF28 / Fold change vs veh, ZNF28 / RFU, RNGTT / Fold change vs veh, RNGTT / RFU, OGT / Fold change vs veh, OGT / RFU, BRD1 / Fold change vs veh, BRD1 / RFU, MARS / Fold change vs veh, MARS / RFU, ZNF655 / Fold change vs veh, ZNF655 / RFU, FAHD1 / Fold change vs veh, FAHD1 / RFU, BDP1 / Fold change vs veh, BDP1 / RFU, LRRCC1 / Fold change vs veh, LRRCC1 / RFU, ARID1A / Fold change vs veh, ARID1A / RFU, ZNF146 / Fold change vs veh, ZNF146 / RFU, ZNF330 / Fold change vs veh, ZNF330 / RFU, GPN3 / Fold change vs veh, GPN3 / RFU, C9orf123 / Fold change vs veh, C9orf123 / RFU, N4BP2L2 / Fold change vs veh, N4BP2L2 / RFU, ARFIP1 / Fold change vs veh, ARFIP1 / RFU, FAM179B / Fold change vs veh, FAM179B / RFU, BCL10 / Fold change vs veh, BCL10 / RFU, UHRF1BP1L / Fold change vs veh, UHRF1BP1L / RFU, BET1 / Fold change vs veh, BET1 / RFU, CNOT2 / Fold change vs veh, CNOT2 / RFU, ZNF268 / Fold change vs veh, ZNF268 / Fold change vs veh, ZNF507 / RFU, DGCR2 / Fold change vs veh, DGCR2 / RFU, WDSUB1 / Fold change vs veh, WDSUB1 / Fold change vs veh, HSP90B1 /// MIR3652 / RFU, ADSS / Fold change vs veh, ADSS / RFU, GK / Fold change vs veh, GK / RFU, ZNF148 / Fold change vs veh, ZNF148 / RFU, TAF9 / Fold change vs veh, TAF9 / RFU, SLC1A5 / Fold change vs veh, SLC1A5 / RFU, SLMO2 / Fold change vs veh, SLMO2 / RFU, ABCC4 / Fold change vs veh, ABCC4 / RFU, LOC101060439 /// RAP1B / Fold change vs veh, LOC101060439 /// RAP1B / RFU, RFX7 / Fold change vs veh, RFX7 / RFU, GTPBP10 / Fold change vs veh, GTPBP10 / RFU, CNEP1R1 / Fold change vs veh, CNEP1R1 / RFU, BIVM-ERCC5 /// ERCC5 / Fold change vs veh, BIVM-ERCC5 /// ERCC5 / RFU, ILF3 / Fold change vs veh, ILF3 / RFU 11762660_at / Fold change /veh 11762660_at / RFU VCAN (11757783_s_at) / Fold change /veh VCAN (11757783_s_at) / RFU DDX43 (11728927_at) / Fold change /veh DDX43 (11728927_at) / RFU KRT8 (11758188_x_at) / Fold change /veh KRT8 (11758188_x_at) / RFU NKD1 (11759106_at) / Fold change /veh NKD1 (11759106_at) / RFU SRD5A1 (11742802_a_at) / Fold change /veh SRD5A1 (11742802_a_at) / RFU TPSAB1 /// TPSB2 (11721975_s_at) / Fold change /veh TPSAB1 /// TPSB2 (11721975_s_at) / RFU GSTM3 (11746129_a_at) / Fold change /veh GSTM3 (11746129_a_at) / RFU IL23R (11737362_x_at) / Fold change /veh IL23R (11737362_x_at) / RFU TMEM51 (11727254_a_at) / Fold change /veh TMEM51 (11727254_a_at) / RFU PIWIL2 (11732686_x_at) / Fold change /veh PIWIL2 (11732686_x_at) / RFU ORM1 (11744905_x_at) / Fold change /veh ORM1 (11744905_x_at) / RFU CCDC152 (11743942_at) / Fold change /veh CCDC152 (11743942_at) / RFU ECM1 (11717891_a_at) / Fold change /veh ECM1 (11717891_a_at) / RFU IL23R (11748794_a_at) / Fold change /veh IL23R (11748794_a_at) / RFU TNFAIP8L3 (11732012_x_at) / Fold change /veh TNFAIP8L3 (11732012_x_at) / RFU MBOAT4 (11741988_at) / Fold change /veh MBOAT4 (11741988_at) / RFU 11764193_at / Fold change /veh 11764193_at / RFU TMEM53 (11763286_at) / Fold change /veh TMEM53 (11763286_at) / RFU MAGEB2 (11727129_at) / Fold change /veh MAGEB2 (11727129_at) / RFU TMEM200A (11744735_a_at) / Fold change /veh TMEM200A (11744735_a_at) / RFU CCDC152 (11751479_a_at) / Fold change /veh CCDC152 (11751479_a_at) / RFU FAM211A (11726209_a_at) / Fold change /veh FAM211A (11726209_a_at) / RFU RGS16 (11746705_a_at) / Fold change /veh RGS16 (11746705_a_at) / RFU VCAN (11755009_s_at) / Fold change /veh VCAN (11755009_s_at) / RFU RHOB (11743442_s_at) / Fold change /veh RHOB (11743442_s_at) / RFU RGS16 (11720943_a_at) / Fold change /veh RGS16 (11720943_a_at) / RFU RGS16 (11720944_at) / Fold change /veh RGS16 (11720944_at) / RFU, VPS4B / Fold change vs veh, VPS4B / RFU, CREB1 / Fold change vs veh, CREB1 / RFU, DNAJC13 / Fold change vs veh, DNAJC13 / RFU, GNAQ / Fold change vs veh, GNAQ / RFU, CDK5R1 / Fold change vs veh, CDK5R1 / RFU, ZRANB3 / Fold change vs veh, ZRANB3 / RFU, CUL4A / Fold change vs veh, CUL4A / RFU, CCNY / Fold change vs veh, CCNY / RFU, UFL1 / Fold change vs veh, UFL1 / RFU, COG3 / Fold change vs veh, COG3 / RFU, DIAPH2 / Fold change vs veh, DIAPH2 / RFU, SKA2 / Fold change vs veh, SKA2 / RFU, AFF3 / Fold change vs veh, AFF3 / RFU, LMF1 / Fold change vs veh, LMF1 / RFU, IPO11 / Fold change vs veh, IPO11 / RFU, DFFB / Fold change vs veh, DFFB / RFU, FOXP1 / Fold change vs veh, FOXP1 / RFU, CARD8 / Fold change vs veh, CARD8 / RFU, STRN3 / Fold change vs veh, STRN3 / RFU, ADK / Fold change vs veh, ADK / RFU, RASSF2 / Fold change vs veh, RASSF2 / RFU, WIPF1 / Fold change vs veh, WIPF1 / RFU, LARP1B / Fold change vs veh, LARP1B / RFU, RASA1 / Fold change vs veh, RASA1 / RFU, RB1 / Fold change vs veh, RB1 / RFU, PPFIA1 / Fold change vs veh, PPFIA1 / RFU, MAT2A / Fold change vs veh, MAT2A / RFU, CCT5 / Fold change vs veh, CCT5 / RFU, WDR92 / Fold change vs veh, WDR92 / RFU, CUX1 / Fold change vs veh, CUX1 / RFU, TTC7A / Fold change vs veh, TTC7A / RFU, TMEM135 / Fold change vs veh, TMEM135 / RFU, DEPTOR / Fold change vs veh, DEPTOR / RFU, CPM / Fold change vs veh, CPM / RFU, DNAJB6 / Fold change vs veh, DNAJB6 / RFU, CACNA2D3 / Fold change vs veh, CACNA2D3 / RFU, DTX4 / Fold change vs veh, DTX4 / RFU, TFCP2 / Fold change vs veh, TFCP2 / RFU, GMCL1 /// GMCL1P1 / Fold change vs veh, GMCL1 /// GMCL1P1 / RFU, AEBP2 / Fold change vs veh, AEBP2 / RFU, SNHG1 /// SNORD22 /// SNORD25 /// SNORD26 /// SNORD27 /// SNORD28 /// SNORD29 /// SNORD31 / Fold change vs veh, SNHG1 /// SNORD22 /// SNORD25 /// SNORD26 /// SNORD27 /// SNORD28 /// SNORD29 /// SNORD31 / Fold change (Aza/veh), C12orf56 (ProbeSet 11735607_a_at) / Fold change (ACY-1035/veh), C12orf56 (ProbeSet 11735607_a_at) / Fold change (Aza/veh), FGFR1OP (ProbeSet 11751329_s_at) / Fold change (ACY-1035/veh), FGFR1OP (ProbeSet 11751329_s_at) / Fold change (Aza/veh), VPS36 (ProbeSet 11739960_a_at) / Fold change (ACY-1035/veh), VPS36 (ProbeSet 11739960_a_at) / RFU SYPL1 (11715823_x_at) / Fold change /veh SYPL1 (11715823_x_at) / RFU IGFBP7 (11715501_s_at) / Fold change /veh IGFBP7 (11715501_s_at) / RFU REEP3 (11722064_at) / Fold change /veh REEP3 (11722064_at) / RFU IGLL1 (11728026_x_at) / Fold change /veh IGLL1 (11728026_x_at): dose or concentration left out as unconfirmed
Settings: ProbeSet 11716865_a_at; LIST B

Nc1ncn([C@@H]2O[C@H](CO)[C@@H](O)[C@H]2O)c(=O)n1 [azacitidine]
Fold change vs veh, SLC1A5: 0.87
